Values joined by “and” are separate entries in the source; they are usually repeats but may differ in a detail not shown here. Equal values may be shown once. Toxic doses and inconclusive results are not listed. Rule for the calls: active = survival T/C of 150% or more; inactive = T/C below 125% in these data.
Tested on: BDF1 mice, B16 melanoma ip, median survival T/C
Assay: NCI In Vivo Anticancer Drug Screen. Data for tumor model B16 Melanoma (intraperitoneal) in B6D2F1 (BDF1) mice
Settings: endpoint: median survival time, higher = longer survival
Procedure, shortened: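 The ratio T/C compares compound-treated mice with vehicle-treated controls, using survival or tumor size as the endpoint in a transplantable tumor model.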

[1] = dose: 12.5 mg/kg/injection, schedule: Q01DX009 (ip), vehicle: Klucel (hydroxypropylcellulose) (HPC)
[2] = dose: 25.0 mg/kg/injection, schedule: Q01DX009 (ip), vehicle: Klucel (hydroxypropylcellulose) (HPC)
[3] = dose: 50.0 mg/kg/injection, schedule: Q01DX009 (ip), vehicle: Klucel (hydroxypropylcellulose) (HPC)
[4] = dose: 50.0 mg/kg/injection, schedule: Q01DX009 (ip), vehicle: saline
[5] = dose: 100.0 mg/kg/injection, schedule: Q01DX009 (ip), vehicle: saline
[6] = dose: 200.0 mg/kg/injection, schedule: Q01DX009 (ip), vehicle: saline
[7] = dose: 400.0 mg/kg/injection, schedule: Q01DX009 (ip), vehicle: saline
[8] = dose: 12.5 mg/kg/injection, schedule: Q01DX009 (ip), vehicle: saline with Tween-80
[9] = dose: 25.0 mg/kg/injection, schedule: Q01DX009 (ip), vehicle: saline with Tween-80
[10] = dose: 50.0 mg/kg/injection, schedule: Q01DX009 (ip), vehicle: saline with Tween-80
[11] = dose: 100.0 mg/kg/injection, schedule: Q01DX009 (ip), vehicle: saline with Tween-80
[12] = dose: 200.0 mg/kg/injection, schedule: Q01DX009 (ip), vehicle: saline with Tween-80
[13] = dose: 1.0 mg/kg/injection, schedule: Q01DX009 (ip), vehicle: saline
[14] = dose: 2.0 mg/kg/injection, schedule: Q01DX009 (ip), vehicle: saline
[15] = dose: 100.0 mg/kg/injection, schedule: Q01DX009 (ip), vehicle: Klucel (hydroxypropylcellulose) (HPC)
[16] = dose: 200.0 mg/kg/injection, schedule: Q01DX009 (ip), vehicle: Klucel (hydroxypropylcellulose) (HPC)
[17] = dose: 4.0 mg/kg/injection, schedule: Q01DX009 (ip), vehicle: saline
[18] = dose: 8.0 mg/kg/injection, schedule: Q01DX009 (ip), vehicle: saline
[19] = dose: 16.0 mg/kg/injection, schedule: Q01DX009 (ip), vehicle: saline
[20] = dose: 32.0 mg/kg/injection, schedule: Q01DX009 (ip), vehicle: saline

Measured: T/C

C[C@@H]1C[C@H]2[C@@H]3CCC4=CC(=O)C=C[C@]4(C)[C@@]3(F)[C@@H](O)C[C@]2(C)[C@@]1(O)C(=O)CO
inactive: dose: 3.12 mg/kg/injection, schedule: Q01DX009 (ip), vehicle: Klucel (hydroxypropylcellulose) (HPC) 114 % of control | dose: 6.25 mg/kg/injection, schedule: Q01DX009 (ip), vehicle: Klucel (hydroxypropylcellulose) (HPC) 107 % of control | [1] 114 % of control | [2] 107 % of control | [3] 115 % of control

Cc1ncc(CO)c(CO)c1O
inactive: [4] 100 % of control | dose: 50.0 mg/kg/injection, schedule: Q08HX018 (ip), vehicle: saline 101 % of control | [5] 100 % of control | dose: 100.0 mg/kg/injection, schedule: Q08HX018 (ip), vehicle: saline 99 % of control | [6] 100 % of control | dose: 200.0 mg/kg/injection, schedule: Q08HX018 (ip), vehicle: saline 95 % of control | [7] 91 % of control | dose: 400.0 mg/kg/injection, schedule: Q08HX018 (ip), vehicle: saline 92 % of control | dose: 800.0 mg/kg/injection, schedule: Q01DX009 (ip), vehicle: saline 87 % of control | dose: 800.0 mg/kg/injection, schedule: Q08HX018 (ip), vehicle: saline 89 % of control

CCCC(=O)Oc1ccc(/C=N/NC(N)=S)nc1
inactive: [8] 105 % of control | [9] 105 % of control | [10] 106 % of control and 112 % of control | [11] 116 % of control | [12] 110 % of control

C[C@]12CC[C@H](OC3OC(CO)C(O)C(O)C3O)C[C@H]1CC[C@@H]1[C@@H]2CC[C@]2(C)[C@@H](C3=CCOC3=O)CC[C@]12O (stereo partly specified)
inactive: dose: 0.5 mg/kg/injection, schedule: Q01DX009 (ip), vehicle: saline 107 % of control | [13] 92 % of control | [14] 105 % of control

CN(C)CC(CN1c2ccccc2Sc2ccccc21)N(C)C (stereo unspecified)
inactive: dose: 3.12 mg/kg/injection, schedule: Q01DX009 (ip), vehicle: saline 102 % of control | dose: 6.25 mg/kg/injection, schedule: Q01DX009 (ip), vehicle: saline 107 % of control | dose: 12.5 mg/kg/injection, schedule: Q01DX009 (ip), vehicle: saline 107 % of control | dose: 25.0 mg/kg/injection, schedule: Q01DX009 (ip), vehicle: saline 120 % of control | [4] 105 % of control

Cc1ccc(S(=O)(=O)N2CCC(C(=O)O)(c3ccccc3)CC2)cc1
inactive: [10] 113 % of control | [11] 99 % of control | [12] 103 % of control

COC(=O)C1C(O)C(C)C(O)C(C)/C=C\C=C(C)C(=O)Nc2c(C)c(OC(C)=O)c3c(c2O)C(=O)C(C)=C2OCOC(=C23)C(C)=CC(C)(O)C(O)C(C)C1O (stereo unspecified)
inactive: [1] 112 % of control | [2] 100 % of control | dose: 25.0 mg/kg/injection, schedule: Q01DX009 (ip), vehicle: carboxymethylcellulose (CMC) 107 % of control | [3] 102 % of control | dose: 50.0 mg/kg/injection, schedule: Q01DX009 (ip), vehicle: carboxymethylcellulose (CMC) 103 % of control | dose: 100.0 mg/kg/injection, schedule: Q01DX009 (ip), vehicle: carboxymethylcellulose (CMC) 102 % of control | dose: 200.0 mg/kg/injection, schedule: Q01DX009 (ip), vehicle: carboxymethylcellulose (CMC) 96 % of control

CC(C)N1CSC(=S)N(Cc2ccccc2)C1
inactive: [15] 96 % of control | [16] 105 % of control

CCCCCCCC(=O)CCC
inactive: [15] 105 % of control | [16] 96 % of control

Cn1c(Cl)nc2c(Cl)nc(Cl)nc21
inactive: [13] 105 % of control | [14] 100 % of control | [17] 97 % of control | [18] 95 % of control | [19] 92 % of control | [20] 92 % of control

COc1cccc2c1C(=O)c1c(O)c3c(c(O)c1C2=O)C[C@@](O)(/C(C)=N\O)C[C@@H]3OC1CC(N)C(O)C(C)O1 (stereo partly specified)
active: dose: 12.5 mg/kg/injection, schedule: Q01DX001 (ip), vehicle: water 213 % of control | dose: 12.5 mg/kg/injection, schedule: Q01DX009 (ip), vehicle: water 187 % of control | dose: 25.0 mg/kg/injection, schedule: Q01DX001 (ip), vehicle: water 207 % of control | dose: 50.0 mg/kg/injection, schedule: Q01DX001 (ip), vehicle: water 158 % of control
inactive: dose: 3.13 mg/kg/injection, schedule: Q01DX009 (ip), vehicle: water 115 % of control | dose: 6.25 mg/kg/injection, schedule: Q01DX001 (ip), vehicle: water 91 % of control

O=C(Nc1nncs1)c1ccncc1
inactive: [8] 100 % of control | [9] 101 % of control | [10] 109 % of control | [11] 113 % of control | [12] 109 % of control

CNC(=O)NCc1ccc(C(=O)NC(C)C)cc1
inactive: [2] 111 % of control | [3] 98 % of control | [15] 99 % of control | [16] 101 % of control | dose: 400.0 mg/kg/injection, schedule: Q01DX009 (ip), vehicle: Klucel (hydroxypropylcellulose) (HPC) 101 % of control

COc1ccc(C[C@H](N)C(=O)NC2C(CO)OC(n3cnc4c(N(C)C)ncnc43)C2O)cc1 (stereo partly specified)
inactive: [17] 114 % of control | [18] 107 % of control | [19] 109 % of control | [20] 110 % of control and 114 % of control | dose: 40.0 mg/kg/injection, schedule: Q01DX009 (ip), vehicle: saline 108 % of control

COc1cccc(OC)c1C(c1c(OC)cccc1OC)c1c(OC)cccc1OC
inactive: dose: 25.0 mg/kg/injection, schedule: Q04DX003 (ip), vehicle: saline with Tween-80 120 % of control | dose: 50.0 mg/kg/injection, schedule: Q04DX003 (ip), vehicle: saline with Tween-80 108 % of control | dose: 100.0 mg/kg/injection, schedule: Q04DX003 (ip), vehicle: saline with Tween-80 114 % of control

CCOC(=O)CCN1CC(C)OC(C)C1 (stereo unspecified)
inactive: [5] 118 % of control | [6] 115 % of control | [7] 118 % of control

COc1cccc(/C=C/[N+](=O)[O-])c1OC
inactive: dose: 35.0 mg/kg/injection, schedule: Q01DX009 (ip), vehicle: saline with Tween-80 117 % of control | dose: 70.0 mg/kg/injection, schedule: Q01DX009 (ip), vehicle: saline with Tween-80 104 % of control

ClCCN(CCCl)CCCN1c2ccccc2Sc2ccc(Cl)cc21
inactive: dose: 3.12 mg/kg/injection, schedule: Q01DX009 (ip), vehicle: saline with Tween-80 120 % of control | [8] 120 % of control | [9] 117 % of control

CC(=O)/C(C)=C\c1ccccc1
inactive: [11] 102 % of control | [12] 95 % of control | dose: 400.0 mg/kg/injection, schedule: Q01DX009 (ip), vehicle: saline with Tween-80 86 % of control

CCCCCC/C=C/C#CCCCCCCCC(=O)O
inactive: dose: 37.5 mg/kg/injection, schedule: Q01DX009 (ip), vehicle: Klucel (hydroxypropylcellulose) (HPC) 107 % of control | dose: 75.0 mg/kg/injection, schedule: Q01DX009 (ip), vehicle: Klucel (hydroxypropylcellulose) (HPC) 99 % of control | dose: 150.0 mg/kg/injection, schedule: Q01DX009 (ip), vehicle: Klucel (hydroxypropylcellulose) (HPC) 101 % of control

COc1ccc(C(=O)C(C)C(O)C(=O)O)c(O)c1C (stereo unspecified)
inactive: dose: 100.0 mg/kg/injection, schedule: Q01DX009 (ip), vehicle: other 93 % of control

O=C1NC(=O)C2(CCc3ccc(N(CCCl)CCCl)cc32)N1 (stereo unspecified)
inactive: dose: 1.5 mg/kg/injection, schedule: Q01DX009 (ip), vehicle: saline with Tween-80 120 % of control | dose: 3.0 mg/kg/injection, schedule: Q01DX009 (ip), vehicle: saline with Tween-80 116 % of control | dose: 12.5 mg/kg/injection, schedule: Q01DX004 (oral), vehicle: saline with Tween-80 102 % of control
active: dose: 12.0 mg/kg/injection, schedule: Q01DX009 (ip), vehicle: saline with Tween-80 183 % of control

Reference: PubChem BioAssay AID192 (DTP/NCI, 2004)
